Test results: ChEMBL document CHEMBL5233249, “Recent advancements in the development of heterocyclic anti-inflammatory agents” (Eur J Med Chem, 2020)
Blank lines part the entries; values can stand above or below the compound they belong to.

Assays:
Rattus norvegicus [1] = experiment: Analgesic activity in Carrageenan- induced paw edema in PO dosed Swiss albino rat assessed as protection of hind paw measured after 2 hrs at 20 mg/kg relative to control; format: functional
Mus musculus [2] = experiment: Anti-inflammatory activity against dimethylbenzene-induced auricular edema Kunming mouse model assessed as inhibition of ear edema at 100 mg/kg, po administered once daily relative to control; format: functional; parameters: scale not given: the % may be the effect or the level left
Mus musculus [3] = experiment: Anti-inflammatory activity against dimethylbenzene-induced auricular edema Kunming mouse model assessed as inhibition of ear edema at 50 mg/kg, po administered once daily relative to control; format: functional; parameters: scale not given: the % may be the effect or the level left
[4] = Inhibition of MAPK p38 (unknown origin); parameters: species or system Homo sapiens
[5] = biological target: Tumor necrosis factor (Homo sapiens) (UniProt P01375); experiment: Inhibition of TNF-alpha (unknown origin) relative to control; conditions: concentration not given here
[6] = Antioxidant activity assessed as DPPH radical scavenging activity incubated for 20 mins relative to control; format: functional
[7] = Anti-inflammatory activity assessed as protein denaturation using bovine serum albumin relative to control; format: functional
Rattus norvegicus [8] = experiment: Anti-inflammatory activity in Carrageenan-induced rat paw edema in Wistar rat assessed as reduction in inhibition of edema measured after 4 hrs relative to control; format: functional; parameters: scale not given: the % may be the effect or the level left
Rattus norvegicus [9] = experiment: Anti-inflammatory activity against formalin-induced foot paw edema in Wistar rat at 5 mg/kg, po assessed as inhibition of edema measured after 4 hr relative to control; format: functional
[10] = biological target: T1, Prostaglandin G/H synthase 2 (Homo sapiens, UniProt P35354); experiment: Inhibition of COX-2 (unknown origin) assessed as inhibition at 10 uM
T1 sequence (P35354 whole entry): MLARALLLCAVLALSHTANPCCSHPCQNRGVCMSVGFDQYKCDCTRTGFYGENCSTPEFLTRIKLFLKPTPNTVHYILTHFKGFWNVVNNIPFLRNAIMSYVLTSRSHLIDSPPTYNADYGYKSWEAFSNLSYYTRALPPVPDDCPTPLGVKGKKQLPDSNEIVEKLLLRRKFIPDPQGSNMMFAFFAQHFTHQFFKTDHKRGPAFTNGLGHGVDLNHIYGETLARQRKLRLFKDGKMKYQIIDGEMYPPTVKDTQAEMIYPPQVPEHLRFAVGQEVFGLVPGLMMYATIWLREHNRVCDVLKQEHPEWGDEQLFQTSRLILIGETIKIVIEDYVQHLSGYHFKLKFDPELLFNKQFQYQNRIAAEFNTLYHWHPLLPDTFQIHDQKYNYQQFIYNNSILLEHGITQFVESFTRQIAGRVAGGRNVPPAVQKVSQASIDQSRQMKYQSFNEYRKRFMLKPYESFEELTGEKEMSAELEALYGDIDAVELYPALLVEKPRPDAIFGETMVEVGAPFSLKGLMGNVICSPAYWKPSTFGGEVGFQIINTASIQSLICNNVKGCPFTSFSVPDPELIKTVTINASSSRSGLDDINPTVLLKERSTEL

Mus musculus [11] = experiment: Anti-inflammatory activity in Carrageenan-induced paw edema mouse model assessed as inhibition of granuloma measured after 24 hrs relative to control; format: functional
[12] = biological target: T1, Prostaglandin G/H synthase 2; experiment: Inhibition of COX-2 (unknown origin) at 10 uM
[13] = biological target: Prostaglandin G/H synthase 1 (Homo sapiens, UniProt P23219); experiment: Inhibition of COX-1 (unknown origin) at 40 uM relative to control
Rattus norvegicus [14] = experiment: Anti-ulcerative activity in aspirin induced Wistar rat ulcer model assessed as inhibition of ulcer index at 20 mg/kg,po; format: functional
Rattus norvegicus [15] = experiment: Anti-ulcerative activity in Carrageenan-induced Sprague-Dawley rat ulcer model assessed as inhibition of ulcer index at 10 mg/kg,po; format: functional
Rattus norvegicus [16] = experiment: Anti-inflammatory activity in Wistar rat assessed as reduced hind paw edema at 25 mg/kg relative to control; format: functional; parameters: scale not given: the % may be the effect or the level left
Rattus norvegicus [17] = experiment: Anti-inflammatory activity against formalin-induced foot paw edema in PO dosed rat at 10 mg/kg assessed as inhibition of edema measured after 4 hr relative to control; format: functional
Rattus norvegicus [18] = experiment: Anti-inflammatory activity in Carageenan-induced paw edema Wistar rat model assessed as reduction in paw edema volume relative to control; format: functional; parameters: scale not given: the % may be the effect or the level left
Rattus norvegicus [19] = experiment: Anti-inflammatory activity against formalin-induced foot paw edema in PO dosed rat at 10 mg/kg assessed as inhibition of edema measured after 5 hr relative to control; format: functional; parameters: scale not given: the % may be the effect or the level left
Mus musculus [20] = experiment: Anti-inflammatory activity in Carrageenan-induced paw edema in […] mouse model assessed as inhibition of edema at 200 mg/kg, po relative to control; format: functional; parameters: scale not given: the % may be the effect or the level left
RAW264.7 [21] = experiment: Anti-inflammatory activity in mouse RAW264.7 cells assessed as inhibition of LPS-induced IL-6 production preincubated for 1 hr followed by LPS addition and measured after 24 hrs by EIA relative to control; format: functional; parameters: scale not given: the % may be the effect or the level left
RAW264.7 [22] = experiment: Anti-inflammatory activity in mouse RAW264.7 cells assessed as inhibition of LPS-induced TNFalpha production relative to control; format: functional; parameters: scale not given: the % may be the effect or the level left
RAW264.7 [23] = experiment: Anti-inflammatory activity in mouse RAW264.7 cells assessed as inhibition of LPS-induced NO production; format: functional, cell-based
RAW264.7 [24] = experiment: Anti-inflammatory activity in mouse RAW264.7 cells assessed as inhibition of LPS-induced IL-6 production measured after 24 hrs by EIA method; format: functional, cell-based; conditions: RAW264.7, 24 h
RAW264.7 [25] = experiment: Anti-inflammatory activity in mouse RAW264.7 cells assessed as inhibition of LPS-induced TNFalpha production measured after 24 hrs by EIA method; format: functional, cell-based; conditions: RAW264.7, 24 h
Rattus norvegicus [26] = experiment: Anti-inflammatory activity against Carrageenan-induced paw edema in PO dosed Wistar albino rat assessed as fold increase in inhibition of […] measured after 1 hr relative to celecoxib; format: functional
Rattus norvegicus [27] = experiment: Anti-inflammatory activity against carrageenan-induced Albino Wistar rat paw edema model assessed as inhibition of rat paw edema at 50 mg/kg, po after 3 hrs relative to control; format: functional; parameters: scale not given: the % may be the effect or the level left
Rattus norvegicus [28] = experiment: Anti-inflammatory activity in Carrageenan-induced-Wistar albino rat model assessed as reduction in volume of paw edema measured after 3 hrs; format: functional

Sequence of Prostaglandin G/H synthase 1 (P23219 whole entry): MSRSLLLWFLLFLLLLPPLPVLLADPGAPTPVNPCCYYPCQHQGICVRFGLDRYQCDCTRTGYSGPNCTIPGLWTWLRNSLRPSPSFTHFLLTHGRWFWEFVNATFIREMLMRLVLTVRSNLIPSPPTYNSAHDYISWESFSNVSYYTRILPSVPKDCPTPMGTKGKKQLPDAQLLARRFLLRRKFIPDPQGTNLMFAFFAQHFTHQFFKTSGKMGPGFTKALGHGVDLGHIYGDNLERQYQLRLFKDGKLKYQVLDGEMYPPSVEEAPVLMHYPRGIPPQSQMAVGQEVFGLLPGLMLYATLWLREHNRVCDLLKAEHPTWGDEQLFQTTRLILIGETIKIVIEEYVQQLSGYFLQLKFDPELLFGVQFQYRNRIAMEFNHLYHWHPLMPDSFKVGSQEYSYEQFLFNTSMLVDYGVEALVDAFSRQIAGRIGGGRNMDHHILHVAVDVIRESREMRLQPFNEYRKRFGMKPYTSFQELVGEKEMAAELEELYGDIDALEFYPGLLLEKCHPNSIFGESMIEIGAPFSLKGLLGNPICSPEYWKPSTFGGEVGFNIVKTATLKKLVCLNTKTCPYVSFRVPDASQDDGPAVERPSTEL
Sequence of Tumor necrosis factor (Homo sapiens) (P01375 whole entry, looked up): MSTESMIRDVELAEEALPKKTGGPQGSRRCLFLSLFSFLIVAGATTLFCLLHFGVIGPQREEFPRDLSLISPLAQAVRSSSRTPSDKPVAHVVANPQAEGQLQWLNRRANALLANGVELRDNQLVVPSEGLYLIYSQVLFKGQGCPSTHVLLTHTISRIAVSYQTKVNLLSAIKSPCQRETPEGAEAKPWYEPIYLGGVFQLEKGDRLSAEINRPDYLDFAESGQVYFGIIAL

SMILES: CC1=NN(c2ccc(F)cc2)C(=O)/C1=N\Nc1ccc(-c2nc3ccccc3[nH]2)cc1
Activity (Rattus norvegicus [1]): 65%

SMILES: c1ccc([Se]CC2CC(c3ccccc3)=NO2)cc1 (centres undefined)
Activity (Mus musculus [2]): 74%
Activity (Mus musculus [3]): 51%

IC50 [4]: 1630 nM
SMILES: O=C(Nc1ccc(Cl)cc1)c1ccc(Nc2ncnc3c2cnn3-c2ccccc2)cc1
inhibition [5]: 62.3%
Activity [6]: 74.9%
Activity [7]: 82.3%
Activity (Rattus norvegicus [8]): 83.73%

IC50 [10]: 370 nM
IC50 [12]: 780 nM
IC50 [13]: 3540 nM
SMILES: COc1ccc(/C=C2/SC(=S)C(Nc3nc4c(cnn4-c4ccccc4)c(=O)n3-c3ccccc3)C2=O)cc1OC (centres undefined)
inhibition in vivo at 5 mg/kg (Rattus norvegicus [9]): 57.4%
inhibition (INH) (Mus musculus [11]): 38.2%

SMILES: Cc1ccc(-c2cc(C(F)(F)F)nn2-c2ccc(S(N)(=O)=O)cc2)cc1 [CELECOXIB]
UI (Rattus norvegicus [14]): 2.99
inhibition in vivo at 5 mg/kg (Rattus norvegicus [9]): 46.4%
UI (Rattus norvegicus [15]): 2.93
inhibition (INH) (Mus musculus [11]): 8.6%
Activity (Mus musculus [2]): 36%
Activity (Rattus norvegicus [16]): 57.14%
inhibition in vivo at 10 mg/kg (Rattus norvegicus [17]): 46.4%
Activity (Rattus norvegicus [18]): 87.59%
Activity (Mus musculus [3]): 79%
Activity (Rattus norvegicus [19]): 69%
Activity (Mus musculus [20]): 17.5%

SMILES: O=c1[nH]c(CCl)nc2sc3c(c12)CCCC3
Activity (RAW264.7 [21]): 90%
Activity (RAW264.7 [22]): 10%

IC50 (RAW264.7 [23]): 5630 nM
IC50 (RAW264.7 [24]): 2640 nM
IC50 (RAW264.7 [25]): 4380 nM
SMILES: CCCCc1nn(C)c2c(NCCCN3CCOCC3)nc(/C=C/c3cc(OC)c(OC)c(OC)c3)nc12

SMILES: Nc1cc(-c2ccc(Cl)cc2)nn1C1=NC2C(C=NN2c2ccccc2)C(=O)N1c1ccccc1 (centres undefined)
fold change (FC) (Rattus norvegicus [26]): 8
inhibition in vivo at 10 mg/kg (Rattus norvegicus [17]): 90%

SMILES: NS(=O)(=O)c1ccc(N/N=C/c2cn(-c3ccc(S(N)(=O)=O)cc3)nc2-c2ccc(Cl)cc2)cc1
UI (Rattus norvegicus [15]): 2.72
Activity (Rattus norvegicus [27]): 97.69%
ED50 (Rattus norvegicus [28]): 8 mg/kg
